Test results: US10160762B2, “6-alkyl dihydropyrazolopyrimidinone compounds as PDE2 inhibitors” (Merck Sharp & Dohme Corp., priority 2015, dated 2018)

target: T1, human PDE2A1 (Homo sapiens, UniProt O00408); assay: IMAP FP PDE assay, human PDE2A1; format: biochemical; conditions: Lab B; read-out: Human PDE2 Ki (nM) Lab B
T1 construct: GST; purchased BPS Bioscience (San Diego, Calif.) 60020; host or cells: insect cells
Procedure, shortened: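 FP (IMAP) read after 60 min room-temperature reaction of insect-cell GST-human PDE2A1 with 50 nM FAM-cAMP plus 1000 nM cGMP (pH 7.2 Tris, Mg2+, DTT). Compounds titrated 3-fold over ten points. Apparent Ki derived assuming KM of 10,000 nM; enzyme at 20% substrate turnover.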

T1 sequence (O00408 1-920 isoform O00408-2): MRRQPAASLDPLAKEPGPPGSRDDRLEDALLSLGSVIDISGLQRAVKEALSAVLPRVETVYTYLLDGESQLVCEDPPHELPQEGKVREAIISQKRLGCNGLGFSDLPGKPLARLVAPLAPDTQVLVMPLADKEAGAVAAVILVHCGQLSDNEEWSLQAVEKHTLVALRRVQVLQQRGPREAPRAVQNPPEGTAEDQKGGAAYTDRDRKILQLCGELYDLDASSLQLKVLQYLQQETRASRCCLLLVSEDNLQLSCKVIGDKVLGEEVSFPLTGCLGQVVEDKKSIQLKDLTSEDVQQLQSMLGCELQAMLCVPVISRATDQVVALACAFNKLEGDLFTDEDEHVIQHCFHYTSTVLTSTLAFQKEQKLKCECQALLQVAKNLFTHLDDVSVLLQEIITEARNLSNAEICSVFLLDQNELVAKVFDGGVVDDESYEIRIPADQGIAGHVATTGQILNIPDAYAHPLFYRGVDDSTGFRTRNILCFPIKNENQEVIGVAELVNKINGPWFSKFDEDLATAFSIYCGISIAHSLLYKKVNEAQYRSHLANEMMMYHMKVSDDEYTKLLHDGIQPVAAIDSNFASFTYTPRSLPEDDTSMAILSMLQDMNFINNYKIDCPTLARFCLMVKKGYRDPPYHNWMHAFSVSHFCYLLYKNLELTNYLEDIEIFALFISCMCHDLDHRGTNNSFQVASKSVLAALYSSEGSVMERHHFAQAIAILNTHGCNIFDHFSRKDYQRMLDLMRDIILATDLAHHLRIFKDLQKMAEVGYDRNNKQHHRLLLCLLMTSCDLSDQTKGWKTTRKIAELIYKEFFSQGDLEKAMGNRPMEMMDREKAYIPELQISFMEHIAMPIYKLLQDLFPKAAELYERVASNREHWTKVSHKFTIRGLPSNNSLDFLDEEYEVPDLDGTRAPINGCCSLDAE

Structure (SMILES)	Ki
Cc1nc2c(c(CO)nn2C(C)c2ccc(OC(F)F)cc2)c(=O)[nH]1 (single isomer, unassigned) [Example 21, (S)- or (R)-1-(1-(4-(Difluoromethoxy)phenyl)ethyl)-3-(hydroxymethyl)-6-methyl-1H-pyrazolo[3,4-d]pyrimidin-4(5H)-one]	3.5 nM
Cc1nc2c(c(C#N)nn2C(C)c2ccc(C(F)(F)F)cc2)c(=O)[nH]1 (single isomer, unassigned) [Example 252]	16 nM
Cc1nc2c(c(CO)nn2C2(c3ccc(C(F)(F)F)cc3)CCC2)c(=O)[nH]1 [Example 78, 3-(Hydroxymethyl)-6-methyl-1-(1-(4-(trifluoromethyl)phenyl)cyclobutyl)-1H-pyrazolo[3,4-d]pyrimidin-4(5H)-one]	4.9 nM
COc1ccc(Cc2nc3c(c(CF)nn3C(C)c3ccc(C(F)(F)F)cc3)c(=O)[nH]2)cc1 (single isomer, unassigned) [Example 219, (S)- or (R)-3-(Fluoromethyl)-6-(4-methoxybenzyl)-1-(1-(4-(trifluoromethyl)phenyl)ethyl)-1H-pyrazolo[3,4-d]pyrimidin-4(5H)-one]	0.96 nM
CC(C)c1nc2c(c(CO)nn2C(C)c2ccc(C(F)(F)F)cc2)c(=O)[nH]1 (racemic) [Example 296, 3-(Hydroxymethyl)-6-(1-methylethyl)-1-{1-[4-(trifluoromethyl)phenyl]ethyl}-1,5-dihydro-4H-pyrazolo[3,4-d]pyrimidin-4-one]	39 nM
Cc1nc2c(c(CC#N)nn2C(C)c2ccc(C(F)(F)F)cc2)c(=O)[nH]1 (single isomer, unassigned) [Example 280]	77 nM
Cc1nc2c(c(CC(F)F)nn2C(C)c2ccc(C(F)(F)F)cc2)c(=O)[nH]1 (single isomer, unassigned) [Example 285]	111 nM
Cc1nc2c(c(CC(F)(F)F)nn2C(c2ccc(C(F)(F)F)cc2)C2(C)CC2)c(=O)[nH]1 (single isomer, unassigned) [Example 59, (S)- or (R)-6-Methyl-1-((1-methylcyclopropyl)(4-(trifluoromethyl)phenyl)methyl)-3-(2,2,2-trifluoroethyl)-1H-pyrazolo[3,4-d]pyrimidin-4(5H)-one]	23 nM
Cc1nc2c(c(CCO)nn2C(C)c2ccc(C(F)(F)F)cc2)c(=O)[nH]1 (single isomer, unassigned) [Example 250]	1.9 nM
CC(c1ccc(C(F)(F)F)cc1)n1nc(CO)c2c(=O)[nH]c(C(F)F)nc21 (centres unmarked) [Example 284, 6-(Difluoromethyl)-3-(hydroxymethyl)-1-(1-(4-(trifluoromethyl)phenyl)ethyl)-1H-pyrazolo[3,4-d]pyrimidin-4(5H)-one]	64 nM
COCc1nn(C(C)c2ccc(C(F)(F)F)cc2)c2nc(C)[nH]c(=O)c12 (single isomer, unassigned) [Example 279]	17 nM
Cc1nc2c(c(/C=N\O)nn2C(C)c2ccc(C(F)(F)F)cc2)c(=O)[nH]1 (centres unmarked) [Example 251, (Z)-6-Methyl-4-oxo-1-(1-(4-(trifluoromethyl)phenyl)ethyl)-4,5-dihydro-1H-pyrazolo[3,4-d]pyrimidine-3-carbaldehyde oxime]	7.2 nM
Cc1nc2c(c(CC#N)nn2C(C)c2ccc(C(F)(F)F)cc2)c(=O)[nH]1 (single isomer, unassigned) [Example 281]	2 nM
COCc1nc2c(c(CO)nn2C(C)c2ccc(C(F)(F)F)cc2)c(=O)[nH]1 (single isomer, unassigned) [Example 293]	3.5 nM
Cc1nc2c(c(CF)nn2C(c2ccc(C(F)(F)F)cc2)C(C)(C)C)c(=O)[nH]1 (single isomer, unassigned) [Example 234, (S)- or (R)-1-(2,2-Dimethyl-1-(4-(trifluoromethyl)phenyl)propyl)-3-(fluoromethyl)-6-methyl-1H-pyrazolo[3,4-d]pyrimidin-4(5H)-one]	11 nM
Cc1nc2c(c(C(F)(F)CO)nn2C(C)c2ccc(C(F)(F)F)cc2)c(=O)[nH]1 (single isomer, unassigned) [Example 255]	1.6 nM
Cc1nc2c(c(C=O)nn2C(C)c2ccc(C(F)(F)F)cc2)c(=O)[nH]1 (centres unmarked) [Example 248, 6-Methyl-4-oxo-1-(1-(4-(trifluoromethyl)phenyl)ethyl)-4,5-dihydro-1H-pyrazolo[3,4-d]pyrimidine-3-carbaldehyde]	66 nM
Cc1nc2c(c(CC(F)(F)F)nn2C(c2ccc(C(F)(F)F)cc2)C(C)(C)C)c(=O)[nH]1 (single isomer, unassigned) [Example 57, (S)- or (R)-1-(2,2-Dimethyl-1-(4-(trifluoromethyl)phenyl)propyl)-6-methyl-3-(2,2,2-trifluoroethyl)-1H-pyrazolo[3,4-d]pyrimidin-4(5H)-one]	62 nM
COc1cccc(Cc2nc3c(c(CF)nn3C(C)c3ccc(C(F)(F)F)cc3)c(=O)[nH]2)c1 (single isomer, unassigned) [Example 221, (S)- or (R)-3-(Fluoromethyl)-6-(3-methoxybenzyl)-1-(1-(4-(trifluoromethyl)phenyl)ethyl)-1H-pyrazolo[3,4-d]pyrimidin-4(5H)-one]	1.3 nM

Results, then the compound that gave them:

Ki	Structure (SMILES)
0.33 nM	Cc1nc2c(c(CO)nn2C(c2ccc(C(C)(C)C)cc2)C2CC2)c(=O)[nH]1 (single isomer, unassigned) [Example 89, (S)- or (R)-1-((4-tert-Butylphenyl)(cyclopropyl)methyl)-3-(hydroxymethyl)-6-methyl-1H-pyrazolo[3,4-d]pyrimidin-4(5H)-one]
0.32 nM	Cc1nc2c(c(CF)nn2C(c2ccc(C(F)(F)F)c(F)c2)C2CC2)c(=O)[nH]1 (single isomer, unassigned) [Example 226, (R)- or (S)-1-(Cyclopropyl(3-fluoro-4-(trifluoromethyl)phenyl)methyl)-3-(fluoromethyl)-6-methyl-1,5-dihydro-4H-pyrazolo[3,4-d]pyrimidin-4-one]
1.1 nM	Cc1nc2c(c(CO)nn2C(c2ccc(C(F)(F)F)c(F)c2)C2CC2)c(=O)[nH]1 (single isomer, unassigned) [Example 91, (S)- or (R)-1-(Cyclopropyl(3-fluoro-4-(trifluoromethyl)phenyl)methyl)-3-(hydroxymethyl)-6-methyl-1H-pyrazolo[3,4-d]pyrimidin-4(5H)-one]
0.89 nM	Cc1nc2c(c(CO)nn2C(c2ccc(OC(F)(F)F)cc2)C(C)C)c(=O)[nH]1 (single isomer, unassigned) [Example 85, (S)- or (R)-3-(Hydroxymethyl)-6-methyl-1-(2-methyl-1-(4-(trifluoromethoxy)phenyl)propyl)-1H-pyrazolo[3,4-d]pyrimidin-4(5H)-one]
11 nM	Cc1nc2c(c(CO)nn2C(c2ccc(OC(F)(F)F)cc2)C(C)C)c(=O)[nH]1 (single isomer, unassigned) [Example 84, (R)- or (S)-3-(Hydroxymethyl)-6-methyl-1-(2-methyl-1-(4-(trifluoromethoxy)phenyl)propyl)-1H-pyrazolo[3,4-d]pyrimidin-4(5H)-one]
0.42 nM	Cc1nc2c(c(CF)nn2C(c2ccc(OC(F)(F)F)c(F)c2)C2CC2)c(=O)[nH]1 (single isomer, unassigned) [Example 228, (R)- or (S)-1-(Cyclopropyl(3-fluoro-4-(trifluoromethoxy)phenyl)methyl)-3-(fluoromethyl)-6-methyl-1,5-dihydro-4H-pyrazolo[3,4-d]pyrimidin-4-one]
7.6 nM	Cc1nc2c(c(CO)nn2C(c2ccc(C(F)(F)F)cc2)C(C)(C)C)c(=O)[nH]1 (single isomer, unassigned) [Example 83, (S)- or (R)-1-(2,2-Dimethyl-1-(4-(trifluoromethyl)phenyl)-propyl)-3-(hydroxymethyl)-6-methyl-1H-pyrazolo[3,4-d]pyrimidin-4(5H)-one]
45 nM	Cc1nc2c(c(CO)nn2C(c2ccc(C(C)(C)C)cc2)C2CC2)c(=O)[nH]1 (single isomer, unassigned) [Example 88, (R)- or (S)-1-((4-tert-Butylphenyl)(cyclopropyl)methyl)-3-(hydroxymethyl)-6-methyl-1H-pyrazolo[3,4-d]pyrimidin-4(5H)-one]
8.3 nM	Cc1nc2c(c(CO)nn2C(c2ccc(OC(F)(F)F)c(F)c2)C2CC2)c(=O)[nH]1 (single isomer, unassigned) [Example 92, (R)- or (S)-1-(Cyclopropyl(3-fluoro-4-(trifluoromethoxy)phenyl)methyl)-3-(hydroxymethyl)-6-methyl-1H-pyrazolo[3,4-d]pyrimidin-4(5H)-one]
3.3 nM	Cc1nc2c(c(CO)nn2C(c2ccc(C(F)(F)F)c(F)c2)C(C)C)c(=O)[nH]1 (single isomer, unassigned) [Example 87, (S)- or (R)-1-(1-(3-Fluoro-4-(trifluoromethyl)phenyl)-2-methylpropyl)-3-(hydroxymethyl)-6-methyl-1H-pyrazolo[3,4-d]pyrimidin-4(5H)-one]
1.1 nM	Cc1nc2c(c(CO)nn2C(C)c2ccc(SC(F)(F)F)cc2)c(=O)[nH]1 (single isomer, unassigned) [Example 23, (S)- or (R)-3-(Hydroxymethyl)-6-methyl-1-(1-(4-(trifluoromethylthio)phenyl)ethyl)-1H-pyrazolo[3,4-d]pyrimidin-4(5H)-one]
1.7 nM	Cc1nc2c(c(CO)nn2C(c2ccc(OC(F)(F)F)c(F)c2)C2CC2)c(=O)[nH]1 (single isomer, unassigned) [Example 93, (S)- or (R)-1-(Cyclopropyl(3-fluoro-4-(trifluoromethoxy)phenyl)methyl)-3-(hydroxymethyl)-6-methyl-1H-pyrazolo[3,4-d]pyrimidin-4(5H)-one]
78 nM	Cc1nc2c(c(CO)nn2C(c2ccc(C(F)(F)F)c(F)c2)C2CC2)c(=O)[nH]1 (single isomer, unassigned) [Example 90, (R)- or (S)-1-(Cyclopropyl(3-fluoro-4-(trifluoromethyl)phenyl)methyl)-3-(hydroxymethyl)-6-methyl-1H-pyrazolo[3,4-d]pyrimidin-4(5H)-one]
